Test results as given in patent US7517874B2 (priority 2007, dated 2009).
Where two headings read alike, the source gives them in different places.

What was measured:
rat CB2 receptor (rCB2) = target: T1, rat CB2 receptor (rCB2) (Rattus norvegicus, UniProt Q9QZN9); assay: cell-based; format: cell-based; conditions: for +/− RCB2: agonist or inverse agonist at rCB2
T1 sequence (Q9QZN9 1-360): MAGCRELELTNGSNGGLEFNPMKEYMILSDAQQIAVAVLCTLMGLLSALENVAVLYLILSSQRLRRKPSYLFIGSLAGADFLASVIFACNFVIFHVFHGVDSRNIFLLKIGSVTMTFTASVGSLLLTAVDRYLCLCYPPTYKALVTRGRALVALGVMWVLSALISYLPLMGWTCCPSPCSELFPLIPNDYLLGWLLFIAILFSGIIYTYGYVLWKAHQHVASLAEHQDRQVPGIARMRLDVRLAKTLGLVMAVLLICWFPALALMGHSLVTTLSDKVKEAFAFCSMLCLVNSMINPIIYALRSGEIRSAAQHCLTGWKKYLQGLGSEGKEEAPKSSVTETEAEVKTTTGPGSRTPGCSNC
How it was run: (§1)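 First, cells in IBMX-containing HEPES-buffered HBSS are raised to elevated cAMP with 2-8 μM NKH-477 for 30 min. Data are normalised to the forskolin and forskolin + 1 μM CP55,940 controls.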

[1] = target: human CB1 receptor (hCB1) (Homo sapiens, UniProt P21554); assay: cell-based; format: cell-based
human CB1 receptor (hCB1), sequence (P21554 whole entry): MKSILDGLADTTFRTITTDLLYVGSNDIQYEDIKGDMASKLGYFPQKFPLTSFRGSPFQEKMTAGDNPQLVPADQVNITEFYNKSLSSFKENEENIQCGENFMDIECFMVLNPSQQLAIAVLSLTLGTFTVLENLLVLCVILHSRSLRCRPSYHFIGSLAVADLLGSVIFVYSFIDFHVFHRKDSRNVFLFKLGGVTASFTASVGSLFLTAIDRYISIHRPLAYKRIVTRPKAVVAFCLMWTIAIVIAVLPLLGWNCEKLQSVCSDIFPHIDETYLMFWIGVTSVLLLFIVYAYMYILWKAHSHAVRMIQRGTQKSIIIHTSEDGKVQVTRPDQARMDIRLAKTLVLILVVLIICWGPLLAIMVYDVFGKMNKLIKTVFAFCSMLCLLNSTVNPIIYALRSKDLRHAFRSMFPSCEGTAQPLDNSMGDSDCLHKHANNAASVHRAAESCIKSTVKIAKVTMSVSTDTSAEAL
How it was run: as §1

[2] = groups >100 nM-10 μM and >10 μM, cAMP, CHO-K1 rCB2, read-out: EC50 RCB2
[3] = groups >100 nM-10 μM and >10 μM, cAMP, CHO-K1 hCB1, read-out: EC50 HCB1

Structure (SMILES) | EC50 (rat CB2 receptor (rCB2)) [nM] | EC50 [1] [nM] | +/− RCB2 (rat CB2 receptor (rCB2)) | EC50 (rat CB2 receptor (rCB2); [2]) [nM] | EC50 [1, 3] [nM]
CNC(=O)[C@@H](NC(=O)c1nc(-c2cccc(-c3nnc(C)o3)c2)n2c1CN(C)CCC2)C(C)(C)C [Compound 407, (S)-N-(3,3-dimethyl-1-(methylamino)-1-oxobutan-2-yl)-8-methyl-3-(3-(5-methyl-1,3,4-oxadiazol-2-yl)phenyl)-6,7,8,9-tetrahydro-5H-imidazo[1,5-a][1,4]diazepine-1-carboxamide] | > 10000 | > 10000 |  |  | 
CNC(=O)[C@@H](NC(=O)c1nc(-c2ccccc2C(N)=O)n2c1CN(C)CCC2)C(C)(C)C [Compound 431, (S)-3-(2-carbamoylphenyl)-N-(3,3-dimethyl-1-(methylamino)-1-oxobutan-2-yl)-8-methyl-6,7,8,9-tetrahydro-5H-imidazo[1,5-a][1,4]diazepine-1-carboxamide] | > 10000 | > 10000 |  |  | 
CNC(=O)[C@@H](NC(=O)c1nc(-c2ccc(C)cc2)n2c1CN(C)CCC2)C(C)(C)C [Compound 332, (S)-N-(3,3-dimethyl-1-(methylamino)-1-oxobutan-2-yl)-8-methyl-3-p-tolyl-6,7,8,9-tetrahydro-5H-imidazo[1,5-a][1,4]diazepine-1-carboxamide] | > 10000 | > 10000 |  |  | 
CNC(=O)[C@@H](NC(=O)c1nc(-c2ccccc2)n2c1CN(C(C)=O)CC2)C(C)(C)C [Compound 174, (S)-7-acetyl-N-(3,3-dimethyl-1-(methylamino)-1-oxobutan-2-yl)-3-phenyl-5,6,7,8-tetrahydroimidazo[1,5-a]pyrazine-1-carboxamide] |  | > 10000 | + |  | 
CN1CCn2c(-c3ccccc3)nc(C(=O)NCC(C)(C)C)c2C1 [Compound 57, 7-methyl-N-neopentyl-3-phenyl-5,6,7,8-tetrahydroimidazo[1,5-a]pyrazine-1-carboxamide] | > 10000 | > 10000 |  |  | 
CNC(=O)[C@@H](NC(=O)c1nc(-c2ccccc2)n2c1CN(Cc1ccco1)CC2)C(C)(C)C [Compound 64, (S)-N-(3,3-dimethyl-1-(methylamino)-1-oxobutan-2-yl)-7-(furan-2-ylmethyl)-3-phenyl-5,6,7,8-tetrahydroimidazo[1,5-a]pyrazine-1-carboxamide] |  | > 10000 | − |  | 
CNC(=O)[C@@H](NC(=O)c1nc(/C=C/CC2CCCC2)n2c1CN(C)CCC2)C(C)(C)C [Compound 445, (S,E)-3-(3-cyclopentylprop-1-enyl)-N-(3,3-dimethyl-1-(methylamino)-1-oxobutan-2-yl)-8-methyl-6,7,8,9-tetrahydro-5H-imidazo[1,5-a][1,4]diazepine-1-carboxamide] |  | > 10000 | − |  | 
CC(C)CN1CCn2c(-c3ccccc3)nc(C(=O)N[C@H](CO)C(C)(C)C)c2C1 [Compound 60, (S)-N-(1-hydroxy-3,3-dimethylbutan-2-yl)-7-isobutyl-3-phenyl-5,6,7,8-tetrahydroimidazo[1,5-a]pyrazine-1-carboxamide] |  | > 10000 | − |  | 
CNC(=O)[C@@H](NC(=O)c1nc(-c2ccc(Cl)cc2F)n2c1CN(C)CC2)C(C)(C)C [Compound 241, (S)-3-(4-chloro-2-fluorophenyl)-N-(3,3-dimethyl-1-(methylamino)-1-oxobutan-2-yl)-7-methyl-5,6,7,8-tetrahydroimidazo[1,5-a]pyrazine-1-carboxamide] |  | > 10000 | − |  | 
CC(C)CN1CCn2c(-c3ccccc3)nc(C(=O)N[C@@H](CO)C(C)(C)C)c2C1 [Compound 68, (R)-N-(1-hydroxy-3,3-dimethylbutan-2-yl)-7-isobutyl-3-phenyl-5,6,7,8-tetrahydroimidazo[1,5-a]pyrazine-1-carboxamide] |  | > 10000 | − |  | 
CNC(=O)[C@@H](NC(=O)c1nc(-c2ccc(F)cc2F)n2c1CN(C)CC2)C(C)(C)C [Compound 248, (S)-3-(2,4-difluorophenyl)-N-(3,3-dimethyl-1-(methylamino)-1-oxobutan-2-yl)-7-methyl-5,6,7,8-tetrahydroimidazo[1,5-a]pyrazine-1-carboxamide] | > 10000 | > 10000 |  |  | 
CNC(=O)[C@@H](NC(=O)c1nc(C(O)c2ccccc2)n2c1CN(C)CC2)C(C)(C)C (stereo partly drawn) [Compound 295, N-((S)-3,3-dimethyl-1-(methylamino)-1-oxobutan-2-yl)-3-(hydroxy(phenyl)methyl)-7-methyl-5,6,7,8-tetrahydroimidazo[1,5-a]pyrazine-1-carboxamide] | > 10000 | > 10000 |  |  | 
COC(=O)[C@@H](NC(=O)c1nc(-c2ccccc2)n2c1CN(C(C)C)CCC2)C(C)(C)C [Compound 468, (S)-methyl 2-(8-isopropyl-3-phenyl-6,7,8,9-tetrahydro-5H-imidazo[1,5-a][1,4]diazepine-1-carboxamido)-3,3-dimethylbutanoate] |  | > 10000 | − |  | 
CC(C)CN1CCn2c(-c3ccccc3)nc(C(=O)NCC3CCOCC3)c2C1 [Compound 167, 7-isobutyl-3-phenyl-N-((tetrahydro-2H-pyran-4-yl)methyl)-5,6,7,8-tetrahydroimidazo[1,5-a]pyrazine-1-carboxamide] |  | > 10000 | − |  | 
CN1CCn2c(-c3ccccc3)nc(C(=O)N[C@H](C(=O)O)C(C)(C)C)c2C1 [Compound 281, (S)-3,3-dimethyl-2-(7-methyl-3-phenyl-5,6,7,8-tetrahydroimidazo[1,5-a]pyrazine-1-carboxamido)butanoic acid] |  | > 10000 | + |  | 
CN1CCCn2c(-c3ccccc3)nc(C(=O)Nc3nc(C(C)(C)C)cs3)c2C1 [Compound 596, N-(4-tert-butylthiazol-2-yl)-8-methyl-3-phenyl-6,7,8,9-tetrahydro-5H-imidazo[1,5-a][1,4]diazepine-1-carboxamide] |  |  |  | > 10000 | > 10000
COC(=O)N1CCn2c(-c3ccc(Cl)cc3)nc(C(=O)NCCC(C)C)c2C1 [Compound 183, methyl 3-(4-chlorophenyl)-1-(isopentylcarbamoyl)-5,6-dihydroimidazo[1,5-a]pyrazine-7(8H)-carboxylate] |  | > 10000 | − |  | 
CNC(=O)[C@@H](NC(=O)c1nc(-c2cncnc2)n2c1CN(C)CC2)C(C)(C)C [Compound 239, (S)-N-(3,3-dimethyl-1-(methylamino)-1-oxobutan-2-yl)-7-methyl-3-(pyrimidin-5-yl)-5,6,7,8-tetrahydroimidazo[1,5-a]pyrazine-1-carboxamide] |  |  |  | > 10000 | > 10000
CNC(=O)c1cccc(NC(=O)c2nc(-c3ccc(Cl)cc3F)n3c2CN(C)CC3)c1 [Compound 216, 3-(4-chloro-2-fluorophenyl)-7-methyl-N-(3-(methylcarbamoyl)phenyl)-5,6,7,8-tetrahydroimidazo[1,5-a]pyrazine-1-carboxamide] |  |  | − |  | > 10000
CCCN1CCn2c(-c3ccccc3)nc(C(=O)Nc3ccccc3)c2C1 [Compound 154, N,3-diphenyl-7-propyl-5,6,7,8-tetrahydroimidazo[1,5-a]pyrazine-1-carboxamide] |  | > 10000 | − |  | 
C[C@H](NC(=O)c1nc(-c2ccccc2)n2c1CN(C(=O)OC(C)(C)C)CC2)c1ccccc1 [Compound 31, (S)-tert-butyl 3-phenyl-1-(1-phenylethylcarbamoyl)-5,6-dihydroimidazo[1,5-a]pyrazine-7(8H)-carboxylate] |  |  | − |  | > 10000
